Source: ChEMBL document CHEMBL6087488, “Development of the First-in-Class FEM1B-Recruiting Histone Deacetylase Degraders” (J Med Chem, 2025)
Calls of active or inactive are those of the source. No cut-off for these calls is given here.

Legend:
MM1.S [1] = test: Antiproliferative activity against human MM1.S cells assessed as cell viability measured after 72 hrs by CellTiter-Glo cell viability assay; assay type: functional, cell-based
[2] = biological target: T1, Protein fem-1 homolog B/Histone deacetylase 1 (Homo sapiens, UniProt Q13547+Q9UK73); test: PROTAC activity at FEM1B/HDAC1 in human MM1.S cell lysate assessed as initial degradation at 1 uM measured after 24 hrs by Western immunoassay; assay type: subcellular
Target sequence in this assay (Q13547 whole entry, looked up): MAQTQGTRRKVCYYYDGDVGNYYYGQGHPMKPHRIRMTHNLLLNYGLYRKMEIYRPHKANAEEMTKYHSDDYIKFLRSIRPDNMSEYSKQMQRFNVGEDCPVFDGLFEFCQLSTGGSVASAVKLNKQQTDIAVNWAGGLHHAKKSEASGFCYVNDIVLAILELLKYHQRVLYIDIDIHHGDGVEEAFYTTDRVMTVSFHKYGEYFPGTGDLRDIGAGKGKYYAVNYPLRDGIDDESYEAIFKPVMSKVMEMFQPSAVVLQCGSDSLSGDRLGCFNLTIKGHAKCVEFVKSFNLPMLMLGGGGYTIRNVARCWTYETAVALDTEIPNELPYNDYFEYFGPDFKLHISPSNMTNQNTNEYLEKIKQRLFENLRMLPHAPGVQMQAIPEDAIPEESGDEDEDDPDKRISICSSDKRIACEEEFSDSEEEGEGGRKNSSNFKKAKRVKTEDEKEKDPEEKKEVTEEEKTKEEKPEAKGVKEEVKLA
Target sequence in this assay (Q9UK73 whole entry, looked up): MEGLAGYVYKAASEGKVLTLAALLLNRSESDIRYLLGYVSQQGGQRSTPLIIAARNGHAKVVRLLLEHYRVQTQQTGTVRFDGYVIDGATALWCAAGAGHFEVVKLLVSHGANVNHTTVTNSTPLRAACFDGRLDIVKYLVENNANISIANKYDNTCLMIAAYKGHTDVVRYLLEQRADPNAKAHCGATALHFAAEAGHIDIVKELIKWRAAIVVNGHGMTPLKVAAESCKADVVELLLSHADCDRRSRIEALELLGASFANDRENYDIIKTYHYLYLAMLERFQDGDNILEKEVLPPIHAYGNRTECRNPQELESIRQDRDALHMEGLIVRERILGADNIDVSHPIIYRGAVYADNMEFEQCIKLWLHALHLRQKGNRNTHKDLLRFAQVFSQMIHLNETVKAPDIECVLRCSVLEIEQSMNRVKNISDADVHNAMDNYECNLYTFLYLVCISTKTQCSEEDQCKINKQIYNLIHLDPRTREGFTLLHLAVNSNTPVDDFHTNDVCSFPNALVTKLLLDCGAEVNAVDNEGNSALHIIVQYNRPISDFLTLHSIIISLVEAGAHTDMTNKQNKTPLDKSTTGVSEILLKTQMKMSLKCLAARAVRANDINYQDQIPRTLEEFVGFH

[3] = biological target: T1, Protein fem-1 homolog B/Histone deacetylase 1; test: PROTAC activity at FEM1B/HDAC1 in human MM1.S cell lysate assessed as initial degradation measured after 24 hrs by Western immunoassay; assay type: subcellular
Target sequence in this assay (Q13547 whole entry): as the sequence (Q13547 whole entry, looked up) above
Target sequence in this assay (Q9UK73 whole entry): as the sequence (Q9UK73 whole entry, looked up) above

[4] = biological target: T1, Protein fem-1 homolog B/Histone deacetylase 1; test: PROTAC activity at FEM1B/HDAC1 in human MM.1S cell lysate assessed as maximal initial degradation at measured after 24 hrs by Western immunoassay relative to control; assay type: subcellular; details: MM1.S
Target sequence in this assay (Q13547 whole entry, looked up): as the sequence (Q13547 whole entry, looked up) above
Target sequence in this assay (Q9UK73 whole entry, looked up): as the sequence (Q9UK73 whole entry, looked up) above

Histone deacetylase 1 = Histone deacetylase 1 (Homo sapiens, UniProt Q13547); test: Inhibition of human recombinant HDAC1 using ZMAL (Z-(Ac)Lys-AMC) as substrate incubated for 90 mins by fluorescence based assay
Histone deacetylase 1, sequence (Q13547 whole entry): as the sequence (Q13547 whole entry, looked up) above

Histone deacetylase 2 = Histone deacetylase 2 (Homo sapiens, UniProt Q92769); test: Inhibition of human HDAC2 using ZMAL (Z-(Ac)Lys-AMC) as substrate incubated for 90 mins by fluorescence based assay
Histone deacetylase 2, sequence (Q92769 whole entry): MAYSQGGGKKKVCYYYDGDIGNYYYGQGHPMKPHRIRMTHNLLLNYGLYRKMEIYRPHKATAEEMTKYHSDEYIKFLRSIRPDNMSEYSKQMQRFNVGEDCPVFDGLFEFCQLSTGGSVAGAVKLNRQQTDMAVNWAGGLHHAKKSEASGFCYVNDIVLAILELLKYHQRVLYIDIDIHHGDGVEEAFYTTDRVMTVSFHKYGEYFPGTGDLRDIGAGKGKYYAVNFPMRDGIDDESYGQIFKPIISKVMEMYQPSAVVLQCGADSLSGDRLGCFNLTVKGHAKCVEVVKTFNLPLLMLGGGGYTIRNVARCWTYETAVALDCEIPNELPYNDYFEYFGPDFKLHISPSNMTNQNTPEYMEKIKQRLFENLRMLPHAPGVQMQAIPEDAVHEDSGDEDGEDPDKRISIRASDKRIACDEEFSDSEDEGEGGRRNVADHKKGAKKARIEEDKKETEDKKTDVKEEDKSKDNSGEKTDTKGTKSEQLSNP

Histone deacetylase 4 = Histone deacetylase 4 (Homo sapiens, UniProt P56524); test: Inhibition of human HDAC4 using Boc-Lys(Tfa)-AMC as substrate incubated for 90 mins by fluorescence based assay; details: read-out: IC50
Histone deacetylase 4, sequence (P56524 whole entry): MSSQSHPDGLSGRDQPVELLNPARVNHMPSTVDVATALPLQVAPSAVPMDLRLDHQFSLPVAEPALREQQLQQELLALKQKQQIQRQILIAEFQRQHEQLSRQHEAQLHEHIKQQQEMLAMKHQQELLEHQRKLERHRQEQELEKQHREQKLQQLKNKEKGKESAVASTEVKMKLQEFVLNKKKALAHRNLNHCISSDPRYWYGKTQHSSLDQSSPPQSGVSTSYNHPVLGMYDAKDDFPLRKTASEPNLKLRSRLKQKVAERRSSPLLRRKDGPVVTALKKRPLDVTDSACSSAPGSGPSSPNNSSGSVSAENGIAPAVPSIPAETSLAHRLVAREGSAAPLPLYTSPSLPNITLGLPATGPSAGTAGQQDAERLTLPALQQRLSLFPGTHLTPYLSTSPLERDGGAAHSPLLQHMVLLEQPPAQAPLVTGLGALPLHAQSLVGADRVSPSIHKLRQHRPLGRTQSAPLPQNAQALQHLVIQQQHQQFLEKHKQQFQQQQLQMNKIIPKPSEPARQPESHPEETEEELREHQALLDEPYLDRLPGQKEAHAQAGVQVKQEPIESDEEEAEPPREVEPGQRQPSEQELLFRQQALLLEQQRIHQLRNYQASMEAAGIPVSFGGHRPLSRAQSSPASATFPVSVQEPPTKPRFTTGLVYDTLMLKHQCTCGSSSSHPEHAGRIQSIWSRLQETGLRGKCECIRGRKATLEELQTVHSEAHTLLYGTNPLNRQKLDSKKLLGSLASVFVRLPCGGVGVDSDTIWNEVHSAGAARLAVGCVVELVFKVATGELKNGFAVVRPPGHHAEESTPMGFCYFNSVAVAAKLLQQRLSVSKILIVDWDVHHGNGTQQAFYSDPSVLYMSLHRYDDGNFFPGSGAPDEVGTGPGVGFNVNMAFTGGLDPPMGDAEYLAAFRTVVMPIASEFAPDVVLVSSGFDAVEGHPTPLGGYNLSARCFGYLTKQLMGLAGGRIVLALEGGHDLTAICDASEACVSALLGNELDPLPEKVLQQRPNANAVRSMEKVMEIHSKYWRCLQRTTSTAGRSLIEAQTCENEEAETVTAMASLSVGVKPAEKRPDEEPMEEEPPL

[5] = biological target: T2, Protein deacetylase HDAC6 (Homo sapiens, UniProt Q9UBN7); test: Inhibition of human HDAC6 using ZMAL (Z-(Ac)Lys-AMC) as substrate incubated for 90 mins by fluorescence based assay
T2 sequence (Q9UBN7 whole entry): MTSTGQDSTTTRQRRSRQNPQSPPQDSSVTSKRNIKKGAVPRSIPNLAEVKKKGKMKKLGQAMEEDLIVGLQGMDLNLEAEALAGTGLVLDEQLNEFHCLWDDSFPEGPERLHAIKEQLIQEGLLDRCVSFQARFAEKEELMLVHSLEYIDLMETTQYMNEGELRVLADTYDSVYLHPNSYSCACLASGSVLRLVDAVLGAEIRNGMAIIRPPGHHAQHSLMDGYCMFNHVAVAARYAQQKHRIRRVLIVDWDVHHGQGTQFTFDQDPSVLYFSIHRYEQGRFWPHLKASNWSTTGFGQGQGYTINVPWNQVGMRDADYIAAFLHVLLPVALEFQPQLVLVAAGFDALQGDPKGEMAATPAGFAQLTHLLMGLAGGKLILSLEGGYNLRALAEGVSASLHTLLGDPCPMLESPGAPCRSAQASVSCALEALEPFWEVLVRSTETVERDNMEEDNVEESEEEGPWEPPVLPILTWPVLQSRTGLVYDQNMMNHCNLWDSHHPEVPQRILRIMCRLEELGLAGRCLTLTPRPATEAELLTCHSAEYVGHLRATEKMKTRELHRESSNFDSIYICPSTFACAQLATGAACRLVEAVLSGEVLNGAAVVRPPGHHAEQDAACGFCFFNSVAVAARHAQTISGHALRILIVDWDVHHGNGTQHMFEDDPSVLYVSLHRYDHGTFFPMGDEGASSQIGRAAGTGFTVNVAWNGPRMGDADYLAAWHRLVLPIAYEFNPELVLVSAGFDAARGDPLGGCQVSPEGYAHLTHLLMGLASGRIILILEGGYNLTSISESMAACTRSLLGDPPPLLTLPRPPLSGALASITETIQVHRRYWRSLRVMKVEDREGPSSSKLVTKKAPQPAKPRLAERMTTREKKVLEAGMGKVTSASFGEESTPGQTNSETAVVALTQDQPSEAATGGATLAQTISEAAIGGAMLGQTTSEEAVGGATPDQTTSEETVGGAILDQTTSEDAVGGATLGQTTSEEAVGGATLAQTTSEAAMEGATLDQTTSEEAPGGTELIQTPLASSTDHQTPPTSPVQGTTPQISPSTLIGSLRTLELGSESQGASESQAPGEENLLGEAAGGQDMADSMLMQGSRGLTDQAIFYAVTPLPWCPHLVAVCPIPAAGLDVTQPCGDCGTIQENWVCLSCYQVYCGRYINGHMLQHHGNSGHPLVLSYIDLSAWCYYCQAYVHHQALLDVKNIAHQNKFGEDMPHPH

[6] = biological target: T1, Protein fem-1 homolog B/Histone deacetylase 1; test: PROTAC activity at FEM1B/HDAC1 in human MM1.S cell lysate assessed as protein degradation at 1 uM measured after 24 hrs by Western immunoassay; assay type: subcellular
Target sequence in this assay (Q13547 whole entry, looked up): as the sequence (Q13547 whole entry, looked up) above
Target sequence in this assay (Q9UK73 whole entry, looked up): as the sequence (Q9UK73 whole entry, looked up) above

[7] = biological target: Protein fem-1 homolog B/Histone deacetylase 2 (Homo sapiens) (UniProt Q92769+Q9UK73); test: PROTAC activity at FEM1B/HDAC2 in human MM1.S cell lysate assessed as protein degradation at 1 uM measured after 24 hrs by Western immunoassay; assay type: subcellular
Protein fem-1 homolog B/Histone deacetylase 2 (Homo sapiens), sequence (Q92769 whole entry, looked up): as the sequence (Q92769 whole entry) above
Protein fem-1 homolog B/Histone deacetylase 2 (Homo sapiens), sequence (Q9UK73 whole entry, looked up): as the sequence (Q9UK73 whole entry, looked up) above

[8] = biological target: Protein fem-1 homolog B/Histone deacetylase 3 (Homo sapiens) (UniProt O15379+Q9UK73); test: PROTAC activity at FEM1B/HDAC3 in human MM1.S cell lysate assessed as protein degradation at 1 uM measured after 24 hrs by Western immunoassay; assay type: subcellular
Protein fem-1 homolog B/Histone deacetylase 3 (Homo sapiens), sequence (O15379 whole entry, looked up): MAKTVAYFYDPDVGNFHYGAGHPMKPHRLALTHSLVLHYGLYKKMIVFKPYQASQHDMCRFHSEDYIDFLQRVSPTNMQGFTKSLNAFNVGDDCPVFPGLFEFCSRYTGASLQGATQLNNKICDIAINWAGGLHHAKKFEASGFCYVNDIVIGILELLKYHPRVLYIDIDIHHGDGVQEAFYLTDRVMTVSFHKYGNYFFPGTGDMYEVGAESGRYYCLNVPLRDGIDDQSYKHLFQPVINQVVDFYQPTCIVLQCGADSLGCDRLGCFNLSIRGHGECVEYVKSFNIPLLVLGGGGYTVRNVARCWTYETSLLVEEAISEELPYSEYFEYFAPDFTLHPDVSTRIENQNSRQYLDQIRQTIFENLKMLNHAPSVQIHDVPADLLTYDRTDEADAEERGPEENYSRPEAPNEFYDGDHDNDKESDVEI
Protein fem-1 homolog B/Histone deacetylase 3 (Homo sapiens), sequence (Q9UK73 whole entry, looked up): as the sequence (Q9UK73 whole entry, looked up) above

[9] = biological target: Protein fem-1 homolog B/Protein deacetylase HDAC6 (Homo sapiens) (UniProt Q9UBN7+Q9UK73); test: PROTAC activity at FEM1B/HDAC6 in human MM1.S cell lysate assessed as protein degradation at 1 uM measured after 24 hrs by Western immunoassay; assay type: subcellular
Protein fem-1 homolog B/Protein deacetylase HDAC6 (Homo sapiens), sequence (Q9UK73 whole entry, looked up, one chain of several): as the sequence (Q9UK73 whole entry, looked up) above

[10] = biological target: Protein fem-1 homolog B/Histone deacetylase 4 (Homo sapiens) (UniProt P56524+Q9UK73); test: PROTAC activity at FEM1B/HDAC4 in human MM1.S cell lysate assessed as protein degradation at 1 uM measured after 24 hrs by Western immunoassay; assay type: subcellular
Protein fem-1 homolog B/Histone deacetylase 4 (Homo sapiens), sequence (P56524 whole entry, looked up): as the sequence (P56524 whole entry) above
Protein fem-1 homolog B/Histone deacetylase 4 (Homo sapiens), sequence (Q9UK73 whole entry, looked up): as the sequence (Q9UK73 whole entry, looked up) above

[11] = biological target: Protein fem-1 homolog B/Histone deacetylase 8 (Homo sapiens) (UniProt Q9BY41+Q9UK73); test: PROTAC activity at FEM1B/HDAC8 in human MM1.S cell lysate assessed as protein degradation at 1 uM measured after 24 hrs by Western immunoassay; assay type: subcellular
Protein fem-1 homolog B/Histone deacetylase 8 (Homo sapiens), sequence (Q9BY41 whole entry, looked up): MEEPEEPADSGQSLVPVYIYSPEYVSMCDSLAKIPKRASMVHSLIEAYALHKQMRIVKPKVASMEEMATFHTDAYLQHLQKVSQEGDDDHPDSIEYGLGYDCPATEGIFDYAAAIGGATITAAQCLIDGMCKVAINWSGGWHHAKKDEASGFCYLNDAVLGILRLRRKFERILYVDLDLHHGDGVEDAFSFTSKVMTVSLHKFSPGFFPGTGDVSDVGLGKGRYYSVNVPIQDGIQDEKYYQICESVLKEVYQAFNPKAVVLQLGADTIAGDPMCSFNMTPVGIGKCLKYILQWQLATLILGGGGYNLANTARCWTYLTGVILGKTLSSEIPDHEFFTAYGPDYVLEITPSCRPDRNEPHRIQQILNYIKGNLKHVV
Protein fem-1 homolog B/Histone deacetylase 8 (Homo sapiens), sequence (Q9UK73 whole entry, looked up): as the sequence (Q9UK73 whole entry, looked up) above

MM1.S [12] = test: Antiproliferative activity against human MM1.S cells assessed as cell viability measured after 72 hrs incubation by MTT assay; assay type: functional, cell-based
MV4-11 = test: Antiproliferative activity against human MV4-11 cells assessed as cell viability measured after 72 hrs incubation by MTT assay; assay type: functional, cell-based; details: MV4-11, 72 h
MDA-MB-231 = test: Antiproliferative activity against human MDA-MB-231 cells assessed as cell viability measured after 72 hrs incubation by MTT assay; assay type: functional, cell-based; details: MDA-MB-231, 72 h
U-87 MG = test: Antiproliferative activity against human U-87 MG cells assessed as cell viability measured after 72 hrs incubation by MTT assay; assay type: functional, cell-based, U-87MG ATCC
MM1.S [13] = test: Induction of cell cycle arrest in human MM1.S cells assessed as reduction in cells at […] phase at 10 uM measured after 48 hrs by propidium iodide based flow cytometry; assay type: functional
MM1.S [14] = test: Induction of cell cycle arrest in human MM1.s cells assessed as increase in cells at Sub-G1 phase at 10 uM measured after 48 hrs by propidium iodide based flow cytometry; assay type: functional
MM1.S [15] = test: Induction of apoptosis in human MM1.S cells assessed as increase in early apoptotic cells at 10 uM measured after 48 hrs by annexin V-FITC/PI staining based assay; assay type: functional, cell-based
MM1.S [16] = test: Induction of apoptosis in human MM1.S cells assessed as increase in late apoptotic cells at 10 uM measured after 48 hrs by annexin V-FITC/PI staining based assay; assay type: functional, cell-based

Compound: N#CCCN(C(=O)CCl)c1ccc2c(c1)OCCN2CC(=O)NCCCCCC(=O)Nc1ccc(C(=O)NCCCCCCC(=O)NO)cc1
- EC50 (MM1.S [1]; Homo sapiens, MM1.S, 72 h): 7.39 µM

Compound: N#CCCN(C(=O)CCl)c1ccc2c(c1)OCCN2CC(=O)NCCOCCOCCOCCOCCC(=O)Nc1ccc(C(=O)NCCCCCCC(=O)NO)cc1
- EC50 (MM1.S [1]; Homo sapiens, MM1.S, 72 h): 42.3 µM

Compound: N#CCCN(C(=O)CCl)c1ccc2c(c1)OCCN2CC(=O)NCC(=O)Nc1ccc(C(=O)NCCCCCCC(=O)NO)cc1
- EC50 (MM1.S [1]; mm1.s): 5.02 µM

Compound: N#CCCN(C(=O)CCl)c1ccc2c(c1)OCCN2CC(=O)NCCOCCOCCC(=O)Nc1ccc(C(=O)NCCCCCCC(=O)NO)cc1
- EC50 (MM1.S [1]; Homo sapiens, MM1.S, 72 h): 26.7 µM

Compound: N#CCCN(C(=O)CCl)c1ccc2c(c1)OCCN2CC(=O)NCCCC(=O)Nc1ccc(C(=O)NCCCCCCC(=O)NO)cc1
- EC50 (MM1.S [1]; Homo sapiens, MM1.S, 72 h): 10.3 µM

Compound: N#CCCN(C(=O)CCl)c1ccc2c(c1)OCCN2CC(=O)N1CCC(C(=O)Nc2ccc(C(=O)NCCCCCCC(=O)NO)cc2)CC1
- EC50 (MM1.S [1]; Homo sapiens, MM1.S, 72 h): 4.73 µM
- Activity [2]: 61.9%
- DC50 [3]: 482 nM
- Emax [4]: 79.8%
- IC50 (Histone deacetylase 1): 94 nM
- IC50 (Histone deacetylase 2): 196 nM
- IC50 (Histone deacetylase 4): 8.6 µM
- IC50 [5]: 6 nM
- Activity [6]: Active
- Activity [7]: Active
- Activity [8]: Active
- Activity [9]: inactive
- Activity [10]: inactive
- Activity [11]: inactive
- EC50 (MM1.S [12]): 4.73 µM
- EC50 (MV4-11): 1140 nM
- EC50 (MDA-MB-231): 8.68 µM
- EC50 (U-87 MG): 66 µM
- Activity (MM1.S [13]): Active
- Activity (MM1.S [14]): Active
- Activity (MM1.S [15]): Active
- Activity (MM1.S [16]): Active

Compound: N#CCCN(C(=O)CCl)c1ccc2c(c1)OCCN2CC(=O)NC[C@H]1CC[C@H](C(=O)Nc2ccc(C(=O)NCCCCCCC(=O)NO)cc2)CC1
- EC50 (MM1.S [1]; Homo sapiens, MM1.S, 72 h): 6.43 µM
